# In patent US10808017B2, “Ubiquitin variants and uses therof as 53BP1 inhibitors” (The Governing Council of the University of Toronto, priority 2016, dated 2020):
# What was measured:
# [1] = test system: gene targeting at the LMNA locus in U2OS cells; assay: LMNA mClover gene targeting assay (CRISPR/Cas9); format: cell-based; settings: parental U2OS cells; NU7441 at 10 μM
# Protocol: (§1) FIG. 4. Activation of HR by i53. FIG. 4A, Schematic of the DR-GFP assay. FIG. 4B. U2OS DR-GFP cells were transfected with the vectors expressing i53, the DM mutant or an empty vector control (EV) along with an I-Scel expression vector. The percentage of GFP-positive cells was determined 48 h post-transfection for each condition and was normalized to the empty vector condition (mean±s.d., N=4). FIG. 4C, U2OS DR-GFP were first transfected with siRNAs targeting the 53BP1 or BRCA1 mRNAs along with a non-targeting siRNA (CTRL). 24 h post-transfection, cells were transfected with the I-SceI expression vector and the percentage of GFP-positive cells was determined 48 h post-siRNA transfection for each condition. The values were normalized to the empty vector condition and presented as the mean±s.e.m; N=4. FIG. 4D, Schematic of the gene targeting assay. FIG. 4E, Gene targeting efficiency at the LMNA locus in parental or 53BP1Δ U2OS cells following transfection with vectors expressing Flag-tagged i53 or its DM mutant or an empty vector control (EV). The DNA-PK inhibitor NU7441 was also added where indicated. 24 h post-transfection, cells were analysed for mClover fluorescence. Individual experiments are presented with the error bar representing the s.d., (N=3). FIG. 4F, Gene targeting at the LMNA locus in G 1-arrested parental (WT) or 53BP1Δ U2OS cells transfected with vectors expressing Flag-tagged i53 or its DM mutant or an empty vector control (EV). The DNA-PK inhibitor NU7441 was also added in the indicated conditions. 24 h post-transfection, cells were analysed for mClover fluorescence. Individual experiments are present with the error bar representing the s.d., (N=3).
# The Lamin A (LMNA) assay to measure the frequency of introduction of the coding sequence for mClover at the 5′ end of LMNA using the CRISPR/Cas9 was performed as previously described4. Parental or 53BP1Δ U2OS cell lines were transfected with the indicated plasmids using Lipofectamine RNAiMAX (Invitrogen). 24 h later, the cells were electroporated with 2.5 μg of sgRNA plasmids and 2.5 μg of donor template using a Nucleofector (Lonza; protocol X-001). Parental or 53BP1Δ U2OS cells stably expressing CtIP-T847E mutant were transfected with an siRNA against KEAP1 and the indicated plasmids and processed as previously described.
# [2] = test system: gene conversion (HR) in U2OS DR-GFP cells; assay: Direct-repeat (DR)-GFP gene conversion assay; format: cell-based, human; settings: SCR7 at 1 μM; i53 by plasmid expression
# Protocol: as §1
# The direct repeat (DR)-GFP assay to measure the frequency of HR and the strand annealing EJ2-GFP assay to measure the frequency of MMEJ were performed as previously described. Briefly, U2OS DR-GFP or U2OS EJ2-GFP cells were transfected with 10 nM siRNA (Dharmacon) using Lipofectamine RNAiMAX (Invitrogen). 24 h later, the cells were transfected with the pCBASceI plasmid (Addgene #26477) and plasmids, using Lipofectamine 2000 (Invitrogen). 48 h post-plasmid transfection, the cells were trypsinized and the percentage of GFP-expressing cells was analyzed using the BD FACSCalibur flow cytometer.
# AAV-293 cells (Agilent) were transfected with pAAV expression, pDJ and pHelper constructs (Cell Biolabs, Inc., USA) in equal amounts using PEI to produce AAV-DJ expression viruses. 48-72 h later, the viral supernatant was used to transduce target cells for 24 h, and assays were initiated a further 24 h later.
# [3] = test system: gene targeting at the LMNA locus in U2OS cells; settings: reference [21]; cited from earlier work
Compound,Change of gene targeting at the LMNA locus (in words) [1],Gene conversion in DR-GFP assay (comparison in words) [2],Response of gene targeting at the LMNA locus to treatment [3]
"O=c1cc(N2CCOCC2)oc2c(-c3cccc4c3sc3ccccc34)cccc12 [NU7441, 8-dibenzothiophen-4-yl-2-morpholin-4-yl-chromen-4-one, reference compound]",modest increase in gene targeting,–,–
"c1cnccn1 [SCR7 pyrazine, reference compound]",–,minimal impact,–
"O=c1[nH]c(=S)[nH]c(N=Cc2ccccc2)c1N=Cc1ccccc1 [SCR7, reference compound]",–,minimal impact,not responsive
